According to paper PMC6017357, “In Vitro Inhibitory Effects of Synthetic Cannabinoid EAM-2201 on Cytochrome P450 and UDP-Glucuronosyltransferase Enzyme Activities in Human Liver Microsomes” (Molecules : A Journal of Synthetic Chemistry and Natural …, 2018):

Biological target: CYP2C19 (Homo sapiens, UniProt P33261)
Test: CYP2C19-mediated [S]-mephenytoin 4′-hydroxylation in human liver microsomes (IC50 and time-dependent inhibition)
Type: in vitro ADME
Set-up: from tissue; host or cells: ultrapooled human liver microsomes
Description: The inhibitory potential (IC50 values) of EAM-2201 on CYP1A2, CYP2A6, CYP2C8, CYP2C9, CYP2C19, CYP2D6 and CYP3A4 were evaluated using ultrapooled human liver microsomes and a cocktail of seven CYP substrates followed by LC-tandem mass spectrometry (LC-MS/MS) as previously described. Each incubation mixture was prepared in a total volume of 100 µL as follows: pooled human liver microsomes (5.2 pmol CYP), 1.0 mM NADPH, 10 mM magnesium chloride, 50 mM potassium phosphate buffer (pH 7.4), various concentrations of EAM-2201 in DMSO (final concentrations of 0.1–50 µM, 0.5% DMSO) and a cocktail of seven CYP probe substrates in 50% acetonitrile (0.5% acetonitrile), including 50 µM phenacetin, 2.5 µM coumarin, 2.0 µM amodiaquine, 10 µM diclofenac, 100 µM [S]-mephenytoin, 5 µM bufuralol and 2.5 µM midazolam in 50% acetonitrile. After a 3-min preincubation at 37 °C, the reactions were initiated by adding NADPH and incubation proceeded for 15 min at 37 °C in a shaking water bath. The reactions were stopped by adding 100 µL of ice-cold methanol containing internal standards (^13C2,^15N-acetaminophen for acetaminophen and N-desethylamodiaquine; d9-1′-hydroxybufuralol for 4′-hydroxydiclofenac, 7-hydroxycoumarin, 4′-hydroxymephenytoin, 1′-hydroxybufuralol and 1′-hydroxy-midazolam). The incubation mixtures were centrifuged at 13,000× g for 4 min at 4 °C and 50 µL of each supernatant was diluted in 50 µL of water. Aliquots (5 µL) of the diluted supernatants were analyzed using LC-MS/MS. All assays were performed in triplicate and the mean values were used in calculations. […] Each reaction was initiated by adding the seven-CYP probe substrate cocktail described above.
The time-dependent inhibitory effects of EAM-2201 on CYP2C8, CYP2C9, CYP2C19 and CYP3A4 activities in ultrapooled human liver microsomes were evaluated using time- and concentration-dependent inhibition assays. Ultrapooled human liver microsomes (26.0 pmol CYP) were pre-incubated with various concentrations of EAM-2201 in DMSO (0.5% DMSO) in 50 mM potassium phosphate buffer (pH 7.4) in the presence of NADPH for predetermined time periods: 5–15 min for CYP2C8 activity, 5–20 min for CYP2C9 activity and 15–40 min for CYP2C19 and CYP3A4 activities. […] Aliquots (5 µL) of the diluted supernatants were analyzed using LC-MS/MS.
The metabolites formed from CYP substrates were simultaneously quantified using our previously described LC-MS/MS method. […]

Sequence of CYP2C19 (P33261 whole entry): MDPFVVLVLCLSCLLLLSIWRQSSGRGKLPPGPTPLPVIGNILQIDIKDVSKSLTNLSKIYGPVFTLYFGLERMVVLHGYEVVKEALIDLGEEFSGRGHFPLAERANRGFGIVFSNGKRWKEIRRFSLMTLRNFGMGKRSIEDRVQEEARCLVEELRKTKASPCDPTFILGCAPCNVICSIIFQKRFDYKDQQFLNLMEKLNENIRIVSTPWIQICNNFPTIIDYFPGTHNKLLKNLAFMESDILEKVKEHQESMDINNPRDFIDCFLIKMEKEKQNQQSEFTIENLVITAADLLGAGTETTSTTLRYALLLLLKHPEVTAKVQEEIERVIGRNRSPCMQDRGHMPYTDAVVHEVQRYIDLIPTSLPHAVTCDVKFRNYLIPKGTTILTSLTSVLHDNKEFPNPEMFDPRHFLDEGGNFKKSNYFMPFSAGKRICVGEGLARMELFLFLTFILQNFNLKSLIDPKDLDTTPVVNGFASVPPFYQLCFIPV

In the case of `CCc1ccc(C(=O)c2cn(CCCCCF)c3ccccc23)c2ccccc12` [EAM-2201, (4-ethyl-1-naphthalenyl)[1-(5-fluoropentyl)-1H-indol-3-yl]-methanone], the IC50 is reported as 10.9 µM, the “inactivation efficiency (kinact/Ki), CYP2C19” value (human liver microsomes) is reported as 115 M⁻¹ s⁻¹ and the kinact (human, ultrapooled human liver microsomes, pH 7.4, probe [S]-mephenytoin (100 µM), 4′-hydroxylation, read-out: kinact, time-dependent inhibition of CYP2C19 [S]-mephenytoin 4′-hydroxylase (converted)) is reported as 0.00044 s⁻¹. The “inhibition of CYP2C19-mediated [S]-mephenytoin 4′-hydroxylation” value (up to 50 µM, without 30-min preincubation, human liver microsomes) was “negligibly inhibited”.
